According to patent US5707966A, “Antithrombotic agents” (Eli Lilly and Company, priority 1995, dated 1998):
Structures can show the parent of a compound that is named as a salt. Where two headings read alike, the source gives them in different places.

Columns and labels:
Type in all cases: biochemical
[1] = biological target: Human Thrombin (Homo sapiens, UniProt P00734); experiment: Inhibition of amidase activity of thrombin (Kass)
[2] = test system: Human plasma; experiment: Human plasma anticoagulation, activated partial thromboplastin time (APTT); conditions: concentration required to double the APTT, linear extrapolation
Method in brief: (§1)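 Test compounds are added to human plasma at many concentrations. Clotting is then initiated by reagent (Thromboplastin-C for PT; Actin for 120 s followed by 0.02M calcium chloride for APTT; 10 NIH units/mL bovine thrombin for TT) and timed instrumentally. The concentration giving twofold prolongation is derived by linear extrapolation.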

[3] = test system: Human plasma; experiment: Human plasma anticoagulation, prothrombin time (PT); conditions: concentration required to double the PT, linear extrapolation
Method in brief: as §1

[4] = test system: Human plasma; experiment: Human plasma anticoagulation, thrombin time (TT); conditions: concentration required to double the thrombin time, linear extrapolation
Method in brief: as §1

[5] = biological target: T1, t-PA (Homo sapiens, UniProt P00750); experiment: Kass with t-PA, chromogenic substrate; conditions: substrate H-D-Ile-Pro-Arg-p-nitroanilide
T1 construct: purchased American Diagnostica, Greenwich, Conn
T1 sequence (P00750 36-562): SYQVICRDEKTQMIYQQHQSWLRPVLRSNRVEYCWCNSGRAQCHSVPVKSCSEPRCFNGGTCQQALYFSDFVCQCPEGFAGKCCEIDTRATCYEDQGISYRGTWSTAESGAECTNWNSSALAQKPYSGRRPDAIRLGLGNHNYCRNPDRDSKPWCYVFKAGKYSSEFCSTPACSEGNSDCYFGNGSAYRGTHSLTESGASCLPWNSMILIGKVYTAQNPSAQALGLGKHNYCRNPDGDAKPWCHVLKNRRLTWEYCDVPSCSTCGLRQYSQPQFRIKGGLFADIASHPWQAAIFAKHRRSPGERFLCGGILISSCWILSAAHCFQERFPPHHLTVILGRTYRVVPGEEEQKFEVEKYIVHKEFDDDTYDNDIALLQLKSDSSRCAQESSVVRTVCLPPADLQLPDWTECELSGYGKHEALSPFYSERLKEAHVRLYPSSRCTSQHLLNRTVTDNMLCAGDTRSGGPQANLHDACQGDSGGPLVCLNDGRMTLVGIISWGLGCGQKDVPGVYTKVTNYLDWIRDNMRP
Experimental: (§2) By substantially following the procedures described above for human thrombin, and using other human blood coagulation system serine proteases and proteases of the fibrinolytic system with the appropriate chromogenic substrates, identified below, selectivity of the compounds of the present invention with respect to the coagulation factor serine proteases and with respect to the fibrinolytic system serine proteases are evaluated as well as their substantial lack of interference with serine proteases of the fibrinolytic system. Thrombin inhibitors preferably should spare fibrinolysis induced by urokinase, tissue plasminogen activator (t-PA) and streptokinase. This would be important to the therapeutic use of such agents as an adjunct to streptokinase, t-PA or urokinase thrombolytic therapy and to the use of such agents as an endogenous fibrinolysis-sparing (with respect to t-PA and urokinase) antithrombotic agent. In addition to the lack of interference with the amidase activity of the fibrinolytic proteases, such fibrinolytic system sparing can be studied by the use of human plasma clots and their lysis by the respective fibrinolytic plasminogen activators.
(§3) Human plasmin is purchased from Boehringer Mannheim, Indianapolis, Ind.; nt-PA is purchased as single chain activity reference from American Diagnostica, Greenwich, Conn. modified-t-PA6 (mt-PA6) is prepared at Eli Lilly and Company by procedure known in the art (See, Burck, et al., J. Biol. Chem., 265, […] (1990). Plasmin chromogenic substrate H-D-Val-Leu-Lys-p-nitroanilide and tissue plasminogen activator (t-PA) substrate H-D-Ile-Pro-Arg-p-nitroanilide are purchased from Kabi Vitrum, Stockholm, Sweden.

[6] = biological target: T2, Human plasmin (Homo sapiens, UniProt P00747); experiment: Kass with plasmin, chromogenic substrate
T2 construct: Human plasmin is purchased; purchased Boehringer Mannheim, Indianapolis, Ind
T2 sequence (P00747 97-810): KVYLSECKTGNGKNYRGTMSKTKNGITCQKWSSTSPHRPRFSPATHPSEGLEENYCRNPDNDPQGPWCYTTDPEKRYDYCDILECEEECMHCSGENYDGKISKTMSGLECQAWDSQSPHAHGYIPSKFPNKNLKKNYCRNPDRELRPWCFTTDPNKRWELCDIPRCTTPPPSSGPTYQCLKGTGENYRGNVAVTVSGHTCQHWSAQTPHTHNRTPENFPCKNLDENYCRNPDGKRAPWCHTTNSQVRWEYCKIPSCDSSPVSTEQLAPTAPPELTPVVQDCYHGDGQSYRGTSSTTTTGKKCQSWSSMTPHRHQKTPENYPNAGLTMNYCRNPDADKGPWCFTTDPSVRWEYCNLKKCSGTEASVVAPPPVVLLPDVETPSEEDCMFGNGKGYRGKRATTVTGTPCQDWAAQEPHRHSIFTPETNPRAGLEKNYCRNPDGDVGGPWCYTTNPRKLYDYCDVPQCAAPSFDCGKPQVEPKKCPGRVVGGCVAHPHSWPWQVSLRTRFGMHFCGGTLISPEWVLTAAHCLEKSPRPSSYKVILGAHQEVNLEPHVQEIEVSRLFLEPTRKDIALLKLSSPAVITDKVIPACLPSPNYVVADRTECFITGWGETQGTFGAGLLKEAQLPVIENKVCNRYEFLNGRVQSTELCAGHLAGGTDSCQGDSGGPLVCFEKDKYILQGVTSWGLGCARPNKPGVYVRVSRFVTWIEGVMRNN
T2 sequence (P00747 97-580 partner limits assumed): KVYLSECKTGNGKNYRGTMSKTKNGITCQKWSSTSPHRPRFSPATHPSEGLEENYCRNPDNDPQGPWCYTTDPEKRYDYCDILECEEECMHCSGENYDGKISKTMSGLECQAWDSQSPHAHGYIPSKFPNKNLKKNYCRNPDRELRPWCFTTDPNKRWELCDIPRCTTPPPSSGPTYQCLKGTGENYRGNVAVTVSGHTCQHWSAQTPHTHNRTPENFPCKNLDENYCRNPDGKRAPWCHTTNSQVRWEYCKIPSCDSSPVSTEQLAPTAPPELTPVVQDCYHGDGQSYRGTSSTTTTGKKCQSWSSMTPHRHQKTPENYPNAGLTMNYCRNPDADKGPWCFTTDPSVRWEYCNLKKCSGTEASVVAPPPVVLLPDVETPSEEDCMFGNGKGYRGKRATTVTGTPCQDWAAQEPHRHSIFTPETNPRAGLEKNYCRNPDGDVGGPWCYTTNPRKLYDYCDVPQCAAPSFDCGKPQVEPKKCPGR
Experimental: as §2, §3

[7] = biological target: T3, Bovine trypsin (Bos taurus, UniProt P00760); experiment: Kass with trypsin, chromogenic substrate
T3 construct: Bovine trypsin is purchased; purchased Worthington Biochemicals, Freehold, N.J
T3 sequence (P00760 24-246): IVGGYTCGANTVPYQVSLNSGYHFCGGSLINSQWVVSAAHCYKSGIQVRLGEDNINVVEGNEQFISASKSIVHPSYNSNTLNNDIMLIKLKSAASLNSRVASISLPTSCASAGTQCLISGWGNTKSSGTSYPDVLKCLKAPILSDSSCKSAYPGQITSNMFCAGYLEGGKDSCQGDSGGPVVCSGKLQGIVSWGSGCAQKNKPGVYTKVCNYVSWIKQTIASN

[8] = biological target: T4, factor Xa (Homo sapiens, UniProt P00742); experiment: Kass with factor Xa, chromogenic substrate
T4 construct: Human factors X, Xa, IXa, XIa, and XIIa are purchased; purchased Enzyme Research Laboratories, South Bend, Ind
T4 sequence (P00742 235-488 limits assumed): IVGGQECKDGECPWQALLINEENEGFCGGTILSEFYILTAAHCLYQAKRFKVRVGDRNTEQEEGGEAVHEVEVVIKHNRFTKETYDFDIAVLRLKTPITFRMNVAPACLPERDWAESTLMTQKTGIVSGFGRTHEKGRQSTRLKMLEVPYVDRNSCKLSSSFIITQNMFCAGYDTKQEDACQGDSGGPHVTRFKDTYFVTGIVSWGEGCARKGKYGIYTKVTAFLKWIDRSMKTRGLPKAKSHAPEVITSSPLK
T4 sequence (P00742 41-179 partner limits assumed): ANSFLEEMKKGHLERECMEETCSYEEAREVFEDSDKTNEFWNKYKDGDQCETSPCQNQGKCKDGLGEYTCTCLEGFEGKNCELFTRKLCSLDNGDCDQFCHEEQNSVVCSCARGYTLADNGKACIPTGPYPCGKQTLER

[9] = mean over a range of concentrations, […]
[10] = substrate H-D-Val-Leu-Lys-p-nitroanilide
[11] = substrate N-Benzoyl-Phe-Val-Arg-p-nitroanilide
[12] = substrate N-Benzoyl-Ile-Glu-Gly-Arg-p-nitroanilide

| Kass Human Thrombin [1, 9] | Kass t-PA [5] | Kass Plasmin [6, 10] | Kass Trypsin [7, 11] | Kass Xa [8, 12] | Compound | Human Plasma Anticoagulation 2× Clotting time APTT [2] | Human Plasma Anticoagulation 2× Clotting time PT [3] | Human Plasma Anticoagulation 2× Clotting time TT [4] | Kass Human Thrombin [1] | Kass Plasmin [6] | Kass Trypsin [7] | Kass Xa [8] |
| --- | --- | --- | --- | --- | --- | --- | --- | --- | --- | --- | --- | --- |
| 40 × 10^6 (L/mole) | 0.04 × 10^6 (L/mole) | 1.8 × 10^6 (L/mole) | 2,200 × 10^6 (L/mole) | 4.3 × 10^6 (L/mole) | CC(C)CC[C@H]1C[C@@H](C(=O)NCc2ccc(C(=N)N)cc2)N(C(=O)[C@@H](CC2CCCCC2)NCC(=O)O)C1 (relative stereo) [Example 50] | 460 ng/mL | 420 ng/mL | 35 ng/mL |  |  |  |  |
| 0.97 × 10^6 (L/mole) | 0.0012 × 10^6 (L/mole) | 0.0017 × 10^6 (L/mole) | 0.02 × 10^6 (L/mole) | 0.0051 × 10^6 (L/mole) | N=C(N)c1cccc(CNC(=O)[C@@H]2CCCN2C(=O)[C@H](N)Cc2ccccc2)c1 [Example 16, D-Phe-Pro-m-NHCH2 C6 H4 C(NH)NH2.0.75HCl] | 8,600 ng/mL | 8,500 ng/mL | 650 ng/mL |  |  |  |  |
|  | 0.0056 × 10^6 (L/mole) | 0.16 × 10^6 (L/mole) | 41 × 10^6 (L/mole) | 0.14 × 10^6 (L/mole) | N=C(N)c1ccc(CNC(=O)[C@@H]2CCCN2C(=O)[C@H]2C[C@H]3CCCC[C@H]3CN2)cc1 [Example 19, D-3-Piq-Pro-p-NHCH2 C6 H4 C(NH)NH2.3HCl] | 300 ng/mL | 540 ng/mL | 58 ng/mL |  |  |  |  |
| 0.78 × 10^6 (L/mole) | < 0.001 × 10^6 (L/mole) | < 0.001 × 10^6 (L/mole) | 0.03 × 10^6 (L/mole) | < 0.001 × 10^6 (L/mole) | CCS(=O)(=O)N[C@H](Cc1ccccc1)C(=O)N1CCC[C@H]1C(=O)NCc1cccc(C(=N)N)c1 [Example 24, EtSO2 -D-Phe-Pro-m-NHCH2 --C6 H4 C(=NH)NH2.HCl] | 25,900 ng/mL | 25,000 ng/mL | 1,000 ng/mL |  |  |  |  |
| 0.29 × 10^6 (L/mole) | 0.02 × 10^6 (L/mole) | < 0.001 × 10^6 (L/mole) | 0.02 × 10^6 (L/mole) | 0.02 × 10^6 (L/mole) | CCS(=O)(=O)N[C@H](Cc1ccccc1)C(=O)N1CCC[C@H]1C(=O)NCCc1cccc(C(=N)N)c1 [Example 27, EtSO2 -D-Phe-Pro-m-NHCH2 CH2 --C6 H4 C(=NH)NH2.HCl] | 27,800 ng/mL | 27,000 ng/mL | 1,940 ng/mL |  |  |  |  |
| 0.95 × 10^6 (L/mole) | < 0.001 × 10^6 (L/mole) | < 0.001 × 10^6 (L/mole) | 0.11 × 10^6 (L/mole) | 0.01 × 10^6 (L/mole) | N=C(N)c1ccc(CCNC(=O)[C@@H]2CCCN2C(=O)[C@@H]2NCC[C@@H]3CCCC[C@@H]32)cc1 [Example 28, 1-Piq-Pro-p-NHCH2 CH2 --C6 H4 C(=NH)NH2.2HCl] | 8,100 ng/mL | 8,300 ng/mL | 520 ng/mL |  |  |  |  |
| 0.76 × 10^6 (L/mole) | < 0.001 × 10^6 (L/mole) | < 0.001 × 10^6 (L/mole) | 0.02 × 10^6 (L/mole) | 0.02 × 10^6 (L/mole) | N=C(N)c1cccc(CCNC(=O)[C@@H]2CCCN2C(=O)[C@@H]2NCC[C@@H]3CCCC[C@@H]32)c1 [Example 29, 1-Piq-Pro-m-NHCH2 CH2 --C6 H4 C(=NH)NH2.2HCl] | 9,800 ng/mL | 15,800 ng/mL | 750 ng/mL |  |  |  |  |
| 0.55 × 10^6 (L/mole) | < 0.001 × 10^6 (L/mole) | < 0.001 × 10^6 (L/mole) | 0.03 × 10^6 (L/mole) | 0.02 × 10^6 (L/mole) | CCS(=O)(=O)N[C@H](Cc1ccccc1)C(=O)N1CCC[C@H]1C(=O)NCCCc1ccc(C(=N)N)cc1 [Example 30, EtSO2 -D-Phe-Pro-p-NHCH2 CH2 CH2 --C6 H4 C(=NH)NH2.HCl] | 14,000 ng/mL | 14,400 ng/mL | 1,000 ng/mL |  |  |  |  |
| 0.07 × 10^6 (L/mole) | < 0.001 × 10^6 (L/mole) | < 0.001 × 10^6 (L/mole) | 0.05 × 10^6 (L/mole) | 0.14 × 10^6 (L/mole) | CCS(=O)(=O)N[C@H](Cc1ccccc1)C(=O)N1CCC[C@H]1C(=O)NCCCc1cccc(C(=N)N)c1 [Example 31, EtSO2 -D-Phe-Pro-m-NHCH2 CH2 CH2 --C6 H4 C(=NH)NH2.HCl] | 34,500 ng/mL | 30,000 ng/mL | 10,800 ng/mL |  |  |  |  |

| Compound | Kass Human Thrombin [1, 9] | Kass t-PA [5] | Kass Plasmin [6, 10] | Kass Trypsin [7, 11] | Kass Xa [8, 12] | Human Plasma Anticoagulation 2× Clotting time APTT [2] | Human Plasma Anticoagulation 2× Clotting time PT [3] | Human Plasma Anticoagulation 2× Clotting time TT [4] | Kass Human Thrombin [1] | Kass Plasmin [6] | Kass Trypsin [7] | Kass Xa [8] |
| --- | --- | --- | --- | --- | --- | --- | --- | --- | --- | --- | --- | --- |
| 1-Piq-Pro-p-NHCH2 C6 H4 C(NH)NH2.2HCl [Example 18] | 180 × 10^6 (L/mole) | 0.0094 × 10^6 (L/mole) | 0.085 × 10^6 (L/mole) | 14 × 10^6 (L/mole) | 0.21 × 10^6 (L/mole) | 79 ng/mL | 170 ng/mL | 7 ng/mL |  |  |  |  |
| N=C(N)c1ccc(CNC(=O)[C@@H]2C[C@@H]3CCCC[C@@H]3N2C(=O)[C@H]2CCCCN2)cc1 (relative stereo) [Example 20, D-hPro-Ohi-p-NHCH2 C6 H4 C(NH)NH2.3HCl] |  | 0.0077 × 10^6 (L/mole) | 0.10 × 10^6 (L/mole) | 19 × 10^6 (L/mole) | 0.10 × 10^6 (L/mole) | 550 ng/mL | 600 ng/mL | 62 ng/mL | 10 |  |  |  |
| CCS(=O)(=O)N[C@@H](C(=O)N1[C@H](C(=O)NCc2ccc(C(=N)N)cc2)C[C@@H]2CCCC[C@@H]21)c1ccccc1 (relative stereo) [Example 44, EtSO2 -Phg-cis-Ohi-p-NHCH2 C6 H4 C(NH)NH2.HCl] |  | 0.04 × 10^6 (L/mole) |  |  |  | 100 ng/mL | 170 ng/mL | 4 ng/mL |  | 1.8 | 2,600 | 0.66 |
| CCS(=O)(=O)N[C@H](Cc1ccccc1)C(=O)N1[C@H](C(=O)NCc2ccc(C(=N)N)cc2)C[C@@H]2CCCC[C@@H]21 (relative stereo) [Example 45, EtSO2 -Phe-cis-Ohi-p-NHCH2 C6 H4 C(NH)NH2.HCl] |  | 0.77 × 10^6 (L/mole) | 1.1 × 10^6 (L/mole) | 110 × 10^6 (L/mole) | 1.5 × 10^6 (L/mole) | 200 ng/mL | 330 ng/mL | 8 ng/mL | 610 |  |  |  |
| N=C(N)c1ccc(CNC(=O)[C@@H]2C[C@@H]3CCCC[C@@H]3N2C(=O)[C@@H](CC2CCCCC2)NCC(=O)O)cc1 (relative stereo) [Example 49, HOOCCH2 -D-Cha-cis-Ohi-p-NHCH2 C6 H4 C(NH)NH2.HCl] |  | 0.04 × 10^6 (L/mole) | 0.84 × 10^6 (L/mole) | 940 × 10^6 (L/mole) | 3.4 × 10^6 (L/mole) | 130 ng/mL | 130 ng/mL | 5 ng/mL | 400 |  |  |  |
